Laboratory results published in patent US20260132127A1, “NOVEL SPIRO COMPOUND” (MITSUBISHI TANABE PHARMA CORPORATION, priority 2021, published 2026).

Target: T1, human TRH-DE (Homo sapiens, UniProt Q9UKU6)
T1 construct: expressed in transfected cells; host or cells: Expi 293 cells (transient expression), membrane fraction
T1 sequence (Q9UKU6 1-1069): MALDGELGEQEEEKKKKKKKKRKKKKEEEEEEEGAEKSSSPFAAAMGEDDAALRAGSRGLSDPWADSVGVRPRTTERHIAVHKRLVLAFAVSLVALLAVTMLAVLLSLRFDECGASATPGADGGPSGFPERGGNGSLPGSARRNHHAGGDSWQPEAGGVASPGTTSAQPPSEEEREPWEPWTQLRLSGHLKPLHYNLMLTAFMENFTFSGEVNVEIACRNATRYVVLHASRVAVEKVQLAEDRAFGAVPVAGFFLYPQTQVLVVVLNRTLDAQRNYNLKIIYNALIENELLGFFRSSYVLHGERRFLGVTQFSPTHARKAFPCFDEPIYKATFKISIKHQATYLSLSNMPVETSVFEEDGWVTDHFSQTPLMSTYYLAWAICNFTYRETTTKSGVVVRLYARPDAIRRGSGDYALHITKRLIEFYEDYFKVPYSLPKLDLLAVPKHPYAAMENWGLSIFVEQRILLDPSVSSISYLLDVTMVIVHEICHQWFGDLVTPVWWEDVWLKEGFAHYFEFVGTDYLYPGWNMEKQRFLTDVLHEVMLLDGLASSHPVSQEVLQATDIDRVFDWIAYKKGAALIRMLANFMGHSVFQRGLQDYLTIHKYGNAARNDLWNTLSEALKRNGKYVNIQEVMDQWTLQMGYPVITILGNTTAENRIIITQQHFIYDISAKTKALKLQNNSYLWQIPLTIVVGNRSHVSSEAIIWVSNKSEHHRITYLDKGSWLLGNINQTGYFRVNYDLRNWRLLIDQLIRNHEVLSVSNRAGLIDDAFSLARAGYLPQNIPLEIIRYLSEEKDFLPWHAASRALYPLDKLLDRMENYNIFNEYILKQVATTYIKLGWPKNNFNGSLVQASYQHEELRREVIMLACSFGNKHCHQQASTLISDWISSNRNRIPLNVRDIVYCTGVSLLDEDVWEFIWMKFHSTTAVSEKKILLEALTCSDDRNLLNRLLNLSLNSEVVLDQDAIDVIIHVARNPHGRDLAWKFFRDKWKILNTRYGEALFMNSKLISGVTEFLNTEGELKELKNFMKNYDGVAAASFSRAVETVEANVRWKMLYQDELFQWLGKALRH
Experiment: TRH-DE inhibition test (RapidFire MS measurement of product Cyclo (His-Pro))
Type: biochemical
Conditions: membrane fraction of Expi 293 cells expressing human TRH-DE; 10 μM TRH substrate; room temperature, 2 hours; 16-point concentration test
Outline: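 Inhibition derived from product/internal-standard ratios of Cyclo(His-Pro), quantified by RapidFire triple-quadrupole MS after acetonitrile:methanol quench, with IC50 fitted over 16 concentrations. Enzyme source: membranes of Expi 293 cells transiently expressing human TRH-DE, 4 μg/ml, pH 7.4 phosphate buffer. Incubation with 10 μM substrate ran 2 h at room temperature.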

| IC50 [nM] | SMILES |
| --- | --- |
| 86 | C[C@H]1CCn2nc(C3(F)CC3)cc2C(=O)N1C1CC2(C1)CN(S(=O)(=O)c1ccccc1F)C2 [Example 191] |
| 9 | C[C@@H]1CCn2nc(C3(C(F)(F)F)CC3)cc2C(=O)N1C1CC2(C1)CN(S(=O)(=O)c1ccccc1F)C2 [Example 192] |
| 25 | C[C@@H]1CCn2nc(C(F)(F)F)cc2C(=O)N1C1CC2(C1)CN(S(=O)(=O)c1ccccc1F)C2 [Example 193] |
| 36 | C[C@@H]1CCn2ncc(Cl)c2C(=O)N1C1CC2(C1)CN(S(=O)(=O)c1ccccc1F)C2 [Example 194] |
| 35 | C[C@@H]1CCn2ncc(Br)c2C(=O)N1C1CC2(C1)CN(S(=O)(=O)c1ccccc1F)C2 [Example 195] |
| 15 | C[C@@H]1CCn2nc(F)c(Br)c2C(=O)N1C1CC2(C1)CN(S(=O)(=O)c1ccccc1F)C2 [Example 196] |
| 13 | C[C@@H]1CCn2nc(C3CC3)c(F)c2C(=O)N1C1CC2(C1)CN(S(=O)(=O)c1ccccc1F)C2 [Example 197] |
| 14 | C[C@@H]1CCn2nc3c(c2C(=O)N1C1CC2(C1)CN(S(=O)(=O)c1ccccc1F)C2)CCC3 [Example 198] |
| 21 | CCn1ncc2c1OC[C@@H](C)N(C1CC3(C1)CN(S(=O)(=O)c1ccccc1F)C3)C2=O [Example 199] |
| 19 | C[C@@H]1COc2c(cnn2CC(F)F)C(=O)N1C1CC2(C1)CN(S(=O)(=O)c1ccccc1F)C2 [Example 200] |
| 20 | C[C@@H]1COc2c(cnn2CC(F)(F)F)C(=O)N1C1CC2(C1)CN(S(=O)(=O)c1ccccc1F)C2 [Example 201] |
| 19 | C[C@@H]1COc2c(cnn2C2CC2)C(=O)N1C1CC2(C1)CN(S(=O)(=O)c1ccccc1F)C2 [Example 202] |
| 34 | C[C@@H]1COc2c(cnn2C(C)(C)C)C(=O)N1C1CC2(C1)CN(S(=O)(=O)c1ccccc1F)C2 [Example 203] |
| 34 | C[C@@H]1COc2c(cnn2-c2ccccc2)C(=O)N1C1CC2(C1)CN(S(=O)(=O)c1ccccc1F)C2 [Example 204] |
| 14 | Cc1nn(C)c2c1C(=O)N(C1CC3(C1)CN(S(=O)(=O)c1ccccc1F)C3)[C@H](C)CO2 [Example 205] |
| 5 | C[C@@H]1COc2c(c(C3CC3)nn2C)C(=O)N1C1CC2(C1)CN(S(=O)(=O)c1ccccc1F)C2 [Example 206] |
| 11 | Cc1nn(C2CC2)c2c1C(=O)N(C1CC3(C1)CN(S(=O)(=O)c1ccccc1F)C3)[C@H](C)CO2 [Example 207] |
| 14 | C[C@@H]1COc2c(c(C3CC3)nn2C2CC2)C(=O)N1C1CC2(C1)CN(S(=O)(=O)c1ccccc1F)C2 [Example 208] |
| 22 | C[C@@H]1COc2nn(C)cc2C(=O)N1C1CC2(C1)CN(S(=O)(=O)c1ccccc1F)C2 [Example 209] |
| 21 | C[C@@H]1COc2nn(C3CC3)cc2C(=O)N1C1CC2(C1)CN(S(=O)(=O)c1ccccc1F)C2 [Example 210] |
| 13 | Cc1c2c(nn1C)OC[C@@H](C)N(C1CC3(C1)CN(S(=O)(=O)c1ccccc1F)C3)C2=O [Example 211] |
| 23 | C[C@@H]1COc2nn(C)c(Br)c2C(=O)N1C1CC2(C1)CN(S(=O)(=O)c1ccccc1F)C2 [Example 212] |
| 11 | C[C@@H]1CCn2c(cnc2Br)C(=O)N1C1CC2(C1)CN(S(=O)(=O)c1ccccc1F)C2 [Example 214] |
| 26 | C[C@@H]1CCn2cnc(Br)c2C(=O)N1C1CC2(C1)CN(S(=O)(=O)c1ccccc1F)C2 [Example 215] |
| 46 | Cc1nc(Br)n2c1C(=O)N(C1CC3(C1)CN(S(=O)(=O)c1ccccc1F)C3)[C@H](C)CC2 [Example 216] |

| IC50 [nM] | SMILES |
| --- | --- |
| 35 | C[C@@H]1COc2conc2C(=O)N1C1CC2(C1)CN(S(=O)(=O)c1ccccc1F)C2 [Example 217] |
| 37 | Cc1onc2c1C(=O)N(C1CC3(C1)CN(S(=O)(=O)c1ccccc1F)C3)[C@H](C)CO2 [Example 218] |
| 38 | C[C@@H]1COc2noc(C(C)(C)C)c2C(=O)N1C1CC2(C1)CN(S(=O)(=O)c1ccccc1F)C2 [Example 219] |
| 12 | C[C@@H]1COc2noc(C3CC3)c2C(=O)N1C1CC2(C1)CN(S(=O)(=O)c1ccccc1F)C2 [Example 220] |
| 988 | C[C@@H]1CCN2CCC[C@H]2C(=O)N1C1CC2(C1)CN(S(=O)(=O)c1ccccc1F)C2 [Example 221] |
| 449 | C[C@@H]1CCN2CCC[C@H]2C(=O)N1C1CC2(C1)CN(S(=O)(=O)c1ccccc1F)C2 [Example 222] |
| 18 | C[C@@H]1Cn2nc(Cl)cc2C(=O)N1C1CC2(C1)CN(S(=O)(=O)c1ccccc1F)C2 [Example 223] |
| 41 | C[C@@H]1Cn2nc(C(C)(F)F)cc2C(=O)N1C1CC2(C1)CN(S(=O)(=O)c1ccccc1F)C2 [Example 224] |
| 11 | C[C@@H]1Cn2nc(C3CC3)cc2C(=O)N1C1CC2(C1)CN(S(=O)(=O)c1ccccc1F)C2 [Example 225] |
| 16 | C[C@@H]1Cn2nc(C3(F)CC3)cc2C(=O)N1C1CC2(C1)CN(S(=O)(=O)c1ccccc1F)C2 [Example 226] |
| 9 | C[C@@H]1Cn2nc(C3(C(F)(F)F)CC3)cc2C(=O)N1C1CC2(C1)CN(S(=O)(=O)c1ccccc1F)C2 [Example 227] |
| 48 | C[C@@H]1Cn2nc(C(F)(F)F)cc2C(=O)N1C1CC2(C1)CN(S(=O)(=O)c1ccccc1F)C2 [Example 228] |
| 33 | C[C@@H]1Cn2ncc(Cl)c2C(=O)N1C1CC2(C1)CN(S(=O)(=O)c1ccccc1F)C2 [Example 229] |
| 19 | C[C@@H]1Cn2ncc(Br)c2C(=O)N1C1CC2(C1)CN(S(=O)(=O)c1ccccc1F)C2 [Example 230] |
| 13 | C[C@@H]1Cn2nc(C3CC3)c(F)c2C(=O)N1C1CC2(C1)CN(S(=O)(=O)c1ccccc1F)C2 [Example 231] |
| 21 | C[C@@H]1Cn2nc(F)c(Br)c2C(=O)N1C1CC2(C1)CN(S(=O)(=O)c1ccccc1F)C2 [Example 232] |
| 31 | C[C@@H]1Cn2cnc(Br)c2C(=O)N1C1CC2(C1)CN(S(=O)(=O)c1ccccc1F)C2 [Example 233] |
| 4 | C[C@@H]1COc2nc([C@H]3C[C@H]3F)sc2C(=O)N1C1CC2(C1)CN(S(=O)(=O)c1ccccc1F)C2 [Example 234, (6R)-2-[(1S,2R)-2-fluorocyclopropyl]-7-[2-(2-fluorophenyl)sulfonyl-2-azaspiro[3.3]heptan-6-yl]-6-methyl-5,6-dihydrothiazolo[5,4-f][1,4]oxazepin-8-one] |
| 3 | C[C@@H]1COc2nc([C@@H]3C[C@H]3F)sc2C(=O)N1C1CC2(C1)CN(S(=O)(=O)c1ccccc1F)C2 [Example 235, (6R)-2-[(1R,2R)-2-fluorocyclopropyl]-7-[2-(2-fluorophenyl)sulfonyl-2-azaspiro[3.3]heptan-6-yl]-6-methyl-5,6-dihydrothiazolo[5,4-f][1,4]oxazepin-8-one] |
| 2 | C[C@@H]1COc2nc([C@@H]3C[C@@H]3F)sc2C(=O)N1C1CC2(C1)CN(S(=O)(=O)c1ccccc1F)C2 [Example 236, (6R)-2-[(1R,2S)-2-fluorocyclopropyl]-7-[2-(2-fluorophenyl)sulfonyl-2-azaspiro[3.3]heptan-6-yl]-6-methyl-5,6-dihydrothiazolo[5,4-f][1,4]oxazepin-8-one] |
| 3 | C[C@@H]1COc2nc([C@H]3C[C@@H]3F)sc2C(=O)N1C1CC2(C1)CN(S(=O)(=O)c1ccccc1F)C2 [Example 237, (6R)-2-[(1S,2S)-2-fluorocyclopropyl]-7-[2-(2-fluorophenyl)sulfonyl-2-azaspiro[3.3]heptan-6-yl]-6-methyl-5,6-dihydrothiazolo[5,4-f][1,4]oxazepin-8-one] |
| 357 | C[C@@H]1Cn2c(cnc2C(F)(F)F)C(=O)N1C1CC2(C1)CN(S(=O)(=O)c1ccccc1F)C2 [Example 238, (6R)-7-[2-(2-fluorophenyl)sulfonyl-2-azaspiro[3.3]heptan-6-yl]-6-methyl-3-(trifluoromethyl)-5,6-dihydroimidazo[1,5-a]pyrazin-8-one] |
| 11 | CC1COc2ccccc2C(=O)N1C1CC2(C1)CN(S(=O)(=O)c1ccccc1F)C2 (stereo not shown) [Example 239, 4-[2-(2-fluorophenyl)sulfonyl-2-azaspiro[3.3]heptan-6-yl]-3-methyl-2,3-dihydro-1,4-benzoxazepin-5-one] |
| 14 | CC1Cc2ccccc2C(=O)N1C1CC2(C1)CN(S(=O)(=O)c1ccccc1F)C2 (stereo not shown) [Example 240] |
